Converted amounts (≈) assume the structure as drawn.
Columns and labels:
physchem [1] = conditions: pH 7.4
physchem [2] = conditions: water
physchem [3] = conditions: PBS, pH 7.4
physchem [4] = conditions: water; remark: listed apart in the source
physchem [5] = conditions: pH 6.8
physchem [6] = conditions: pH 1.2
physchem [7] = conditions: pH 6.8; remark: listed apart in the source
physchem [8] = conditions: pH 1.2; remark: listed apart in the source
physchem [9] = experiment: physchem

Row | SMILES | solubility thermodynamic at 4 h (physchem [1]; PBS) [µM] | solubility thermodynamic at 24 h (physchem [2]) [µM] | solubility thermodynamic at 24 h (physchem [3]) [µM] | solubility thermodynamic at 4 h (physchem [4]) [µM] | solubility thermodynamic at 24 h (physchem [5]; simulated intestinal fluid) [µM] | solubility thermodynamic at 24 h (physchem [6]; simulated gastric fluid) [µM] | solubility thermodynamic at 4 h (physchem [7]; simulated intestinal fluid) [µM] | solubility thermodynamic at 4 h (physchem [8]; simulated gastric fluid) [µM] | solubility thermodynamic (physchem [9]) [µM] | solubility thermodynamic at 4 h (physchem [1]; buffer) [µM] | solubility thermodynamic at 24 h (physchem [5]; simulated gi fluid) [µM] | solubility thermodynamic at 24 h (physchem [6]; simulated gi fluid) [µM] | solubility thermodynamic at 4 h (physchem [7]; simulated gi fluid) [µM] | solubility thermodynamic at 4 h (physchem [8]; simulated gi fluid) [µM]
1 | CCCc1nc2c(C)cc(-c3nc4ccccc4n3C)cc2n1Cc1ccc(-c2ccccc2C(=O)O)cc1 | 7.76 (≈ 3.99 µg/mL) | 29.5 (≈ 15.2 µg/mL) | 6.46 (≈ 3.32 µg/mL) | 3.89 (≈ 2 µg/mL) | 2.29 (≈ 1.18 µg/mL) | 40.7 (≈ 21 µg/mL) | 1.95 (≈ 1 µg/mL) | 38.9 (≈ 20 µg/mL) | – | – | – | – | – | –
2 | CC(C(=O)[O-])c1ccc(-c2ccccc2)c(F)c1.[Na+] (stereo not drawn) | 162 | – | – | 331 | – | – | 4.07 | 33.1 | – | – | – | – | – | –
3 | CC(=O)N[C@@H](CS)C(=O)O [ACETYLCYSTEINE] | 12.3 (≈ 2.01 µg/mL) | – | – | 24.5 (≈ 4.01 µg/mL) | – | – | 6.17 (≈ 1.01 µg/mL) | 6.17 (≈ 1.01 µg/mL) | – | – | – | – | – | –
4 | CCCSc1ccc2nc(NC(=O)OC)[nH]c2c1 [ALBENDAZOLE] | 1.91 (≈ 0.506 µg/mL) | 0.049 (≈ 0.013 µg/mL) | 12.9 (≈ 3.42 µg/mL) | 0.38 (≈ 0.101 µg/mL) | 0.759 (≈ 0.201 µg/mL) | 204 (≈ 54.2 µg/mL) | 1.91 (≈ 0.506 µg/mL) | 151 (≈ 40.2 µg/mL) | 0.49 (≈ 0.13 µg/mL) | – | – | – | – | –
5 | C[C@@H]1[C@H](O)[C@@H](C)/C=C/C=C/C=C/C=C/C=C/C=C/C=C/[C@H](O[C@@H]2O[C@H](C)[C@@H](O)[C@H](N)[C@@H]2O)C[C@@H]2O[C@](O)(C[C@@H](O)C[C@@H](O)[C@H](O)CC[C@@H](O)C[C@@H](O)CC(=O)O[C@H]1C)C[C@H](O)[C@H]2C(=O)O [AMPHOTERICIN B] | 21.9 (≈ 20.2 µg/mL) | 22.9 (≈ 21.2 µg/mL) | 26.3 (≈ 24.3 µg/mL) | 21.9 (≈ 20.2 µg/mL) | 3.8 (≈ 3.51 µg/mL) | 11.2 (≈ 10.4 µg/mL) | 4.37 (≈ 4.03 µg/mL) | 13.5 (≈ 12.5 µg/mL) | 81.3 (≈ 75.1 µg/mL) | – | – | – | – | –
6 | CC(C)(C#N)c1cc(Cn2cncn2)cc(C(C)(C)C#N)c1 [ANASTROZOLE] | 0.339 (≈ 0.0994 µg/mL) | 0.148 (≈ 0.0434 µg/mL) | 0.105 (≈ 0.0307 µg/mL) | 0.339 (≈ 0.0994 µg/mL) | 0.692 (≈ 0.203 µg/mL) | 0.178 (≈ 0.0522 µg/mL) | 1.7 (≈ 0.498 µg/mL) | 1.7 (≈ 0.498 µg/mL) | – | – | – | – | – | –
7 | CN1C(=N)N(C)/C(=C/c2c[nH]c3ccccc23)C1=O [APLYSINOPSIN] | 56.2 (≈ 14.3 µg/mL) | – | – | 31.6 (≈ 8.04 µg/mL) | – | – | 0.389 (≈ 0.0989 µg/mL) | 79.4 (≈ 20.2 µg/mL) | – | – | – | – | – | –
8 | CC(=O)Oc1ccccc1C(=O)O [ASPIRIN] | – | – | – | – | – | – | – | – | – | 5010 (≈ 903 µg/mL) | 3.72 (≈ 0.669 µg/mL) | 1450 (≈ 260 µg/mL) | 2.75 (≈ 0.496 µg/mL) | 3310 (≈ 597 µg/mL)
9 | COc1ccc2cc3[n+](cc2c1OC)CCc1cc2c(cc1-3)OCO2.[Cl-] [BERBERINE CHLORIDE] | 21.4 | – | – | 214 | – | – | 398 | 33.9 | 537 | – | – | – | – | –
10 | CC(C)=CC[C@H]1C[C@@]23C[C@@H](CC=C(C)C)C(C)(C)[C@@](CC=C(C)C)(C(=O)C(C(=O)c4ccc(O)c(O)c4)=C2OC1(C)C)C3=O [CAMBOGIN] | 0.851 (≈ 0.513 µg/mL) | – | – | 0.851 (≈ 0.513 µg/mL) | – | – | 0.851 (≈ 0.513 µg/mL) | 0.851 (≈ 0.513 µg/mL) | – | – | – | – | – | –
11 | CC[C@H]1OC(=O)[C@H](C)[C@@H](O[C@H]2C[C@@](C)(OC)[C@@H](O)[C@H](C)O2)[C@H](C)[C@@H](O[C@@H]2O[C@H](C)C[C@H](N(C)C)[C@H]2O)[C@](C)(OC)C[C@@H](C)C(=O)[C@H](C)[C@@H](O)[C@]1(C)O [CLARITHROMYCIN] | 0.676 (≈ 0.506 µg/mL) | – | – | 0.676 (≈ 0.506 µg/mL) | – | – | 1.35 (≈ 1.01 µg/mL) | 0.676 (≈ 0.506 µg/mL) | 0.0447 (≈ 0.0334 µg/mL) | – | – | – | – | –
12 | Clc1ccccc1C(c1ccccc1)(c1ccccc1)n1ccnc1 [CLOTRIMAZOLE] | 11.5 (≈ 3.96 µg/mL) | – | – | 10 (≈ 3.45 µg/mL) | – | – | 0.288 (≈ 0.0995 µg/mL) | 5.75 (≈ 1.98 µg/mL) | – | – | – | – | – | –
13 | CC(/C=C/C=C(\C)C(=O)O[C@@H]1O[C@H](CO[C@@H]2O[C@H](CO)[C@@H](O)[C@H](O)[C@H]2O)[C@@H](O)[C@H](O)[C@H]1O)=C\C=C\C=C(C)\C=C\C=C(/C)C(=O)O[C@@H]1O[C@H](CO[C@@H]2O[C@H](CO)[C@@H](O)[C@H](O)[C@H]2O)[C@@H](O)[C@H](O)[C@H]1O [CROCIN] | 155 (≈ 151 µg/mL) | – | – | 155 (≈ 151 µg/mL) | – | – | 155 (≈ 151 µg/mL) | 155 (≈ 151 µg/mL) | – | – | – | – | – | –
14 | CC(=O)O[C@@]12CO[C@@H]1C[C@H](O)[C@@]1(C)C(=O)[C@H](O)C3=C(C)[C@@H](OC(=O)[C@H](O)[C@@H](NC(=O)OC(C)(C)C)c4ccccc4)C[C@@](O)([C@@H](OC(=O)c4ccccc4)[C@H]21)C3(C)C.O.O.O [DOCETAXEL] | 2.45 | – | – | 5.37 | – | – | 1.23 | 0.617 | 0.871 | – | – | – | – | –

Source: ChEMBL document CHEMBL3400005, “Thermodynamic equilibrium solubility measurements in simulated fluids by 96-well plate method in early drug discovery” (Bioorg Med Chem Lett, 2015)
